Each block holds one molecule with its values, some of them ahead of it. Activity calls are given as the source filed them. No cut-off for these calls is given here.
What was measured:
NB-4 [1] = assay: Cell cycle arrest in human NB4 cells assessed as accumulation of cells at S phase at 2 uM incubated for 6 hrs by DAPI staining based flow cytometric analysis (reference value: 20 %); type: functional
NB-4 [2] = assay: Induction of cell differentiation in human NB4 cells at 0.5 uM incubated for 4 to 6 days by CD11b staining based flow cytometric analysis; type: functional; conditions: time 4-6 day
NB-4 [3] = assay: Cell cycle arrest in human NB4 cells transfected with pLVX-shRNA2-negative control assessed as accumulation of cells at G0/G1 phase at 1 uM incubated for 12 hrs by DAPI staining based flow cytometric analysis (reference value: 46 %); type: functional
[4] = Cell cycle arrest in human ATRA-resistant NB4-LR2 cells assessed as accumulation of cells at S phase at 0.5 uM incubated for 24 hrs by DAPI staining based flow cytometric analysis (reference value: 21 %); type: functional
[5] = Cell cycle arrest in human ATRA-resistant NB4-LR2 cells assessed as accumulation of cells at G2/M phase at 2 uM incubated for 3 hrs by DAPI staining based flow cytometric analysis (reference value: 15 %); type: functional
NB-4 [6] = assay: Cell cycle arrest in human NB4 cells assessed as accumulation of cells at sub-G1 phase at 2 uM incubated for 3 hrs by DAPI staining based flow cytometric analysis (reference value: 3 %); type: functional
NB-4 [7] = assay: Cell cycle arrest in human NB4 cells transfected with pLVX-shRNA2-negative control assessed as accumulation of cells at S phase at 1 uM incubated for 12 hrs by DAPI staining based flow cytometric analysis (reference value: 26 %); type: functional
NB-4 [8] = assay: Cell cycle arrest in human NB4 cells assessed as accumulation of cells at sub-G1 phase at 1 uM incubated for 24 hrs by DAPI staining based flow cytometric analysis (reference value: 3 %); type: functional
NB-4 [9] = assay: Cell cycle arrest in human NB4 cells assessed as increase in cyclin B1 expression at 2 uM incubated for 3 to 24 hrs by Western blot analysis; type: functional, cell-based; conditions: time 3-24 hrs
NB-4 [10] = assay: Cell cycle arrest in human NB4 cells transfected with pLVX-shRXRalpha plasmid assessed as accumulation of cells at G2/M phase at 1 uM incubated for 12 hrs by DAPI staining based flow cytometric analysis (reference value: 17 %); type: functional
NB-4 [11] = assay: Cell cycle arrest in human NB4 cells transfected with pLVX-shRXRalpha plasmid assessed as accumulation of cells at sub-G1 phase at 1 uM incubated for 12 hrs by DAPI staining based flow cytometric analysis (reference value: 10 %); type: functional
[12] = biological target: T1, Retinoic acid receptor alpha (Homo sapiens, UniProt P10276); assay: Agonist activity at Gal4-fused full length human RARalpha LBD transfected in HEK293T cells co-transfected with pG5luc reporter and Renilla-luc assessed as transactivation incubated for 12 hrs by dual luciferase reporter gene assay; type: cell-based
T1 sequence (P10276 whole entry): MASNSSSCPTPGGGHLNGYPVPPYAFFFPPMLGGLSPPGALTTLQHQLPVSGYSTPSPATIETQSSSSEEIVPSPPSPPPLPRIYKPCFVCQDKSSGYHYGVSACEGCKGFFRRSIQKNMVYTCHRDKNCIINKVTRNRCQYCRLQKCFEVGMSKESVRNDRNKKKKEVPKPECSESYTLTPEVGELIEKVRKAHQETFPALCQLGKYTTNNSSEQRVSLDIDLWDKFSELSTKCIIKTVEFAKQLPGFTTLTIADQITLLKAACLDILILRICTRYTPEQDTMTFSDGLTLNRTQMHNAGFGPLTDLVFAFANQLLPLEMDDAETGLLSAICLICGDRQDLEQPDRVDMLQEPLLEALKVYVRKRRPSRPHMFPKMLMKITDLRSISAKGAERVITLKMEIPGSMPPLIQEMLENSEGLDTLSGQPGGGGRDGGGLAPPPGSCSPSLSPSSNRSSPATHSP

NB-4 [13] = assay: Cell cycle arrest in human NB4 cells assessed as accumulation of cells at S phase at 1 uM incubated for 12 hrs by DAPI staining based flow cytometric analysis (reference value: 20 %); type: functional
NB-4 [14] = assay: Cell cycle arrest in human NB4 cells assessed as accumulation of cells at S phase at 0.5 uM incubated for 6 days for DAPI staining based flow cytometric analysis (reference value: 27 %); type: functional; conditions: time 6 day
ATRA-resistant NB4-LR2 [15] = assay: Cell cycle arrest in human ATRA-resistant NB4-LR2 cells assessed as increase in PLK1 expression at 2 uM incubated for 3 to 24 hrs by Western blot analysis; type: functional, cell-based; conditions: time 3-24 hrs
NB-4 [16] = assay: Cell cycle arrest in human NB4 cells assessed as accumulation of cells at G0/G1 phase at 1 uM incubated for 12 hrs by DAPI staining based flow cytometric analysis (reference value: 51 %); type: functional
HeLa = assay: Induction of 3-flag-tagged PML-RARalpha (unknown origin) degradation transfected in human HeLa cells at 1 to 2 uM incubated for 24 hrs by Western blot analysis; type: cell-based; conditions: dose 1-2 µM
[17] = Induction of apoptosis in human ATRA-resistant NB4-LR2 cells assessed as late apoptotic cells at 1 uM incubated for 24 hrs by Annexin V-FITC/PI staining based flow cytometric analysis (reference value: 7.23 %); type: functional
[18] = biological target: Estrogen receptor (Homo sapiens) (UniProt P03372); assay: Agonist activity at Gal4-fused full length ERalpha LBD (unknown origin) transfected in HEK293T cells co-transfected with pG5luc reporter and Renilla-luc at 0.1 to 1 uM incubated for 12 hrs by luciferase reporter gene assay; type: cell-based; conditions: dose 0.1-1 µM
Estrogen receptor (Homo sapiens), sequence (P03372 whole entry, the tested form may be a part): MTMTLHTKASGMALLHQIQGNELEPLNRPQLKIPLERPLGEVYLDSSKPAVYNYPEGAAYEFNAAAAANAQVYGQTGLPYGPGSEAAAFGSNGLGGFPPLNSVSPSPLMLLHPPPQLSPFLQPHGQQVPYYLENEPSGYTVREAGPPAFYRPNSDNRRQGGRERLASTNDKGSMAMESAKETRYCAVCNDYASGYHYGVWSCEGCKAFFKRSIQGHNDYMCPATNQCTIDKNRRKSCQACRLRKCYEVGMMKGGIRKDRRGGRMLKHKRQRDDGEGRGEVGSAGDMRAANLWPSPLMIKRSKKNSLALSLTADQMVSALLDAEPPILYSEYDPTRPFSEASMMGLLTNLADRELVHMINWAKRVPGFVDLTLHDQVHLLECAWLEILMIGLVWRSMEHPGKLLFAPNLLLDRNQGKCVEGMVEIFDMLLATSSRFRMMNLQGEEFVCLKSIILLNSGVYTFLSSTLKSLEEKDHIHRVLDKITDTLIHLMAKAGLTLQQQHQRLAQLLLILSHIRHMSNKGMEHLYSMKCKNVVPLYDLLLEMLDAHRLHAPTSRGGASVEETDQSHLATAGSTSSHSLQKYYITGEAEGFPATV

[19] = Cell cycle arrest in human ATRA-resistant NB4-LR2 cells assessed as accumulation of cells at G0/G1 phase at 1 uM incubated for 24 hrs by DAPI staining based flow cytometric analysis (reference value: 42 %); type: functional
NB-4 [20] = assay: Cell cycle arrest in human NB4 cells assessed as accumulation of cells at G2/M phase at 2 uM incubated for 12 hrs by DAPI staining based flow cytometric analysis (reference value: 21 %); type: functional
[21] = Cell cycle arrest in human ATRA-resistant NB4-LR2 cells assessed as accumulation of cells at S phase at 2 uM incubated for 3 hrs by DAPI staining based flow cytometric analysis (reference value: 19 %); type: functional
[22] = Cell cycle arrest in human ATRA-resistant NB4-LR2 cells assessed as accumulation of cells at sub-G1 phase at 2 uM incubated for 3 hrs by DAPI staining based flow cytometric analysis (reference value: 9 %); type: functional
NB-4 [23] = assay: Cell cycle arrest in human NB4 cells assessed as accumulation of cells at G0/G1 phase at 2 uM incubated for 6 hrs by DAPI staining based flow cytometric analysis (reference value: 56 %); type: functional
ATRA-resistant NB4-LR2 [24] = assay: Induction of cell differentiation in human ATRA-resistant NB4-LR2 cells at 0.5 uM incubated for 6 days by flow cytometric analysis; type: functional, cell-based; conditions: time 6.0 day
[25] = Cell cycle arrest in human ATRA-resistant NB4-LR2 cells assessed as accumulation of cells at G0/G1 phase at 2 uM incubated for 24 hrs by DAPI staining based flow cytometric analysis (reference value: 42 %); type: functional
NB-4 [26] = assay: Cell cycle arrest in human NB4 cells assessed as accumulation of cells at G2/M phase at higher concentration by DAPI staining based flow cytometric analysis; type: functional

EC50 [12]: 424 nM
Activity [18]: Minimal_effect
SMILES: Cc1cc2c(cc1C(=O)/C(Br)=C/c1ccc(C(=O)O)cc1)C(C)(C)CCC2(C)C
Activity (NB-4 [1]): 27%
Activity (NB-4 [2]): Active
Activity (NB-4 [3]): 30%
Activity [4]: 12%
Activity [5]: 33%
Activity (NB-4 [6]): 3%
Activity (NB-4 [7]): 8%
Activity (NB-4 [8]): 8%
Activity (NB-4 [9]): Active
Activity (NB-4 [10]): 45%
Activity (NB-4 [11]): 11%
Activity (NB-4 [13]): 13%
Activity (NB-4 [14]): 7%
Activity (ATRA-resistant NB4-LR2 [15]): Active
Activity (NB-4 [16]): 20%
Activity (HeLa): Active
Activity [17]: 13.3%
Activity [19]: 32%
Activity (NB-4 [20]): 62%
Activity [21]: 6%
Activity [22]: 13%
Activity (NB-4 [23]): 30%
Activity (ATRA-resistant NB4-LR2 [24]): Minimal_effect
Activity [25]: 34%

EC50 [12]: 419 nM
Activity [18]: Minimal_effect
SMILES: Cc1cc2c(cc1C(=O)/C(Br)=C\c1ccc(C(=O)O)cc1)C(C)(C)CCC2(C)C
Activity (NB-4 [2]): Active
Activity (NB-4 [26]): Active
Activity (NB-4 [9]): Active
Activity (NB-4 [14]): 8%
Activity (ATRA-resistant NB4-LR2 [15]): Active
Activity (HeLa): Active
Activity [17]: 11.42%
Activity (ATRA-resistant NB4-LR2 [24]): Minimal_effect
